Experimental data as given in publication PMC5618690, “Structural and functional analysis of two small leucine-rich repeat proteoglycans, fibromodulin and chondroadherin” (Matrix Biology, 2017).

Legend:
chondroadherin = target: T1, chondroadherin (Homo sapiens, UniProt O15335); test: Binding of peptide AB31 to chondroadherin in solution by size exclusion chromatography
T1 construct: The construct comprises residues 23–359 of Uniprot O15335 and is untagged; made in house; host or cells: HEK293 c18 cells
T1 sequence (O15335 23-359): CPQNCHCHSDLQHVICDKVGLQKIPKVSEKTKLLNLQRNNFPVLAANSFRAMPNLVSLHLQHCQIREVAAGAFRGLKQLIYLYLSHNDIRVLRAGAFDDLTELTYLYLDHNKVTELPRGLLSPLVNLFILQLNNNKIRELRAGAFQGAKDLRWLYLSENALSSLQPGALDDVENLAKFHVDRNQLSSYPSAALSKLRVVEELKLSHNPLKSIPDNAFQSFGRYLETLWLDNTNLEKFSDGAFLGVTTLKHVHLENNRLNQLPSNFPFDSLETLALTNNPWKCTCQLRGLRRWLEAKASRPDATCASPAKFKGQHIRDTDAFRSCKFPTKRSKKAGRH
Protocol: The natural affinity of chondroadherin for Ni^2 + affinity resin was used to purify the untagged protein. The filtered serum-free cell culture supernatant was adjusted to a final concentration of 20 mM Na-HEPES (pH 7.5) and loaded onto a 5-ml HisTrap Excel column using an Äkta Purifier. Elution was performed with an imidazole gradient in buffer A. The chondroadherin protein was further purified by size exclusion chromatography as described for fibromodulin. Chondroadherin and the collagen-like peptide AB31 were mixed in a 1:2 molar ratio and incubated for 15 min at room temperature. The chondroadherin-AB31 complex was purified by size exclusion chromatography in buffer A.

decorin dimer = settings: ref [26]; read-out: dissociation constant of decorin dimer; cited from earlier work
Text: We used size exclusion chromatography with multi-angle light scattering (SEC-MALS) to determine the oligomeric states of fibromodulin and chondroadherin in solution (Fig. 4). The experimentally determined mass of fibromodulin was 56.7 kDa (calculated: 41.5 kDa + 4 N-linked glycans) and that of chondroadherin was 39.6 kDa (calculated: 38.6 kDa). In comparison, using the same SEC-MALS setup, we previously determined an experimental mass of 83.5 kDa for the glycosylated decorin core protein (calculated: 36.2 kDa + 4 N-linked glycans).

[1] = ref [26], cited from earlier work
Text: Fig. 3 Concave face interactions in SLRP crystal structures. For each structure, two orthogonal views are shown. […] The experimentally determined mass of fibromodulin was 56.7 kDa (calculated: 41.5 kDa + 4 N-linked glycans) and that of chondroadherin was 39.6 kDa (calculated: 38.6 kDa). In comparison, using the same SEC-MALS setup, we previously determined an experimental mass of 83.5 kDa for the glycosylated decorin core protein (calculated: 36.2 kDa + 4 N-linked glycans).

## GAOGPSGFQGLOGPOGPO
chondroadherin; SEC, Superdex 75, AB31:chondroadherin 2:1 molar ratio, 15 min, room temperature, buffer A (20 mM HEPES pH 7.5, 150 mM NaCl, 2 mM CaCl2)
  complex formation with chondroadherin in solution: forms a stable complex with chondroadherin in solution
chondroadherin; sequence shared by II-26 and AB31
  binding site quality of shared sequence: high-affinity binding site for chondroadherin

## decorin
Decorin dimer
  Kd: 1400 nM
[1]; not SEC-MALS of this work, [32], [33]
  oligomeric state in solution (literature): form stable dimers in solution
[1]; same SEC-MALS setup, previously determined
  experimental mass of glycosylated decorin core protein: 83.5 kDa
